Experimental data from US8748496B2, “Methods of treatment of hyperuricemia and associated disease states” (Elan Pharmaceuticals, Inc., priority 2008, dated 2014).

System: uric acid levels
Assay: Multiple ascending dose study every twelve hours for seven days, uric acid in healthy elderly subjects
Assay type: in vivo, human
Conditions: for uric acid, Mean: N=6
Description: A single-center, randomized, placebo-controlled, multiple ascending dose study evaluating a scyllo-inositol formulation was conducted in healthy elderly subjects. Approximately 32 healthy subjects (men and women) participated in […] consisting of 8 subjects each (i.e., 6 on active drug and 2 on placebo). Subjects received drug twice daily (BID) (every 12 hours) for 7 days. The dosage levels of the scyllo-inositol were 200 mg BID (400 mg/d total), 700 mg BID (1400 mg/d total), 1500 mg BID (3000 mg/d total) and 3000 mg BID (6000 mg/d total) given every 12 hours. Blood samples were collected from each subject on days 0, 4, 7, and 12.
Scyllo-inositol 200 and 500 mg capsules were bovine spongiform encephalopathy (BSE)/transmissible spongiform encephalopathy (TSE)-free soft gelatin, white, opaque capsules and no excipient was used in the finished product. Capsules were supplied in 60-mL, oblong, white pharmaceutical high density polyethylene (HDPE) bottles with white caps. Each 60-mL bottle contained 30 capsules of 200 or 500 mg scyllo-inositol.
The mean change from baseline to day 7 versus placebo was used to determine statistical significance. […] The ANCOVA looked at the change of uric acid levels in controls from starting levels of uric acid; the software used was SAS 9.1.3. […] The point estimate of 0.85 is a population parameter in dosed subjects.

[1] = 200 mg BID oral 7 days group, Baseline (Day 0)
[2] = 700 mg BID oral 7 days group, Baseline (Day 0)
[3] = 1500 mg BID oral 7 days group, Baseline (Day 0)
[4] = 1500 mg BID oral 7 days, Day 12
[5] = 3000 mg BID oral 7 days group, Baseline (Day 0)
[6] = 3000 mg BID oral 7 days, Day 12

## O[C@H]1[C@H](O)[C@@H](O)[C@H](O)[C@@H](O)[C@@H]1O [scyllo-inositol, 1,2,3,4,5,6-cyclohexanehexyl, (1alpha,2beta,3alpha,4beta,5alpha,6beta)]
[1]
  uric acid, Max: 458 micromole per liter
  uric acid, Median: 318.2 micromole per liter
  uric acid, Min: 149 micromole per liter
  uric acid, Mean: 316.2 micromole per liter
200 mg BID oral 7 days, Day 4
  uric acid, Max: 410 micromole per liter
  uric acid, Max Change from Baseline: 54 micromole per liter
  uric acid, Mean Change from Baseline: −7.9 micromole per liter
  uric acid, Median: 330.1 micromole per liter
  uric acid, Median Change from Baseline: −11.9 micromole per liter
  uric acid, Min: 143 micromole per liter
  uric acid, Min Change from Baseline: −48 micromole per liter
  uric acid, Mean: 308.3 micromole per liter
200 mg BID oral 7 days, Day 7
  uric acid, Max: 387 micromole per liter
  uric acid, Max Change from Baseline: 18 micromole per liter
  uric acid, Mean Change from Baseline: −25.8 micromole per liter
  uric acid, Median: 333.1 micromole per liter
  uric acid, Median Change from Baseline: −17.8 micromole per liter
  uric acid, Min: 143 micromole per liter
  uric acid, Min Change from Baseline: −77 micromole per liter
  uric acid, Mean: 290.5 micromole per liter
200 mg BID oral 7 days, Day 12
  uric acid, Max: 476 micromole per liter
  uric acid, Max Change from Baseline: 59 micromole per liter
  uric acid, Median: 368.8 micromole per liter
  uric acid, Median Change from Baseline: 26.8 micromole per liter
  uric acid, Min: 184 micromole per liter
  uric acid, Min Change from Baseline: −12 micromole per liter
  uric acid, Mean: 342.0 micromole per liter
[2]
  uric acid, Max: 410 micromole per liter
  uric acid, Median: 258.7 micromole per liter
  uric acid, Min: 161 micromole per liter
  uric acid, Mean: 269.6 micromole per liter
700 mg BID oral 7 days, Day 4
  uric acid, Max: 351 micromole per liter
  uric acid, Max Change from Baseline: 0 micromole per liter
  uric acid, Mean Change from Baseline: −51.5 micromole per liter
  uric acid, Median: 175.5 micromole per liter
  uric acid, Median Change from Baseline: −62.5 micromole per liter
  uric acid, Min: 143 micromole per liter
  uric acid, Min Change from Baseline: −101 micromole per liter
  uric acid, Mean: 218.1 micromole per liter
700 mg BID oral 7 days, Day 7
  uric acid, Max: 309 micromole per liter
  uric acid, Max Change from Baseline: −12 micromole per liter
  uric acid, Mean Change from Baseline: −70.4 micromole per liter
  uric acid, Median: 169.5 micromole per liter
  uric acid, Median Change from Baseline: −83.3 micromole per liter
  uric acid, Min: 125 micromole per liter
  uric acid, Min Change from Baseline: −107 micromole per liter
  uric acid, Mean: 199.3 micromole per liter
700 mg BID oral 7 days, Day 12
  uric acid, Max: 410 micromole per liter
  uric acid, Max Change from Baseline: 30 micromole per liter
  uric acid, Mean Change from Baseline: −1.0 micromole per liter
  uric acid, Median: 237.9 micromole per liter
  uric acid, Median Change from Baseline: 3.0 micromole per liter
  uric acid, Min: 167 micromole per liter
  uric acid, Min Change from Baseline: −54 micromole per liter
  uric acid, Mean: 268.7 micromole per liter
[3]
  uric acid, Max: 434 micromole per liter
  uric acid, Median: 279.6 micromole per liter
  uric acid, Min: 220 micromole per liter
  uric acid, Mean: 303.3 micromole per liter
1500 mg BID oral 7 days, Day 4
  uric acid, Max: 291 micromole per liter
  uric acid, Max Change from Baseline: 12 micromole per liter
  uric acid, Mean Change from Baseline: −70.4 micromole per liter
  uric acid, Median: 237.9 micromole per liter
  uric acid, Median Change from Baseline: −71.4 micromole per liter
  uric acid, Min: 155 micromole per liter
  uric acid, Min Change from Baseline: −143 micromole per liter
  uric acid, Mean: 233.0 micromole per liter
1500 mg BID oral 7 days, Day 7
  uric acid, Max: 256 micromole per liter
  uric acid, Max Change from Baseline: −24 micromole per liter
  uric acid, Mean Change from Baseline: −88.2 micromole per liter
  uric acid, Median: 229.0 micromole per liter
  uric acid, Median Change from Baseline: −77.3 micromole per liter
  uric acid, Min: 155 micromole per liter
  uric acid, Min Change from Baseline: −196 micromole per liter
  uric acid, Mean: 215.1 micromole per liter
[4]
  uric acid, Max: 399 micromole per liter
  uric acid, Max Change from Baseline: 18 micromole per liter
  uric acid, Mean Change from Baseline: −27.8 micromole per liter
  uric acid, Median: 279.6 micromole per liter
  uric acid, Median Change from Baseline: −29.7 micromole per liter
  uric acid, Min: 196 micromole per liter
  uric acid, Min Change from Baseline: −65 micromole per liter
  uric acid, Mean: 275.6 micromole per liter
[5]
  uric acid, Max: 363 micromole per liter
  uric acid, Median: 300.4 micromole per liter
  uric acid, Min: 226 micromole per liter
  uric acid, Mean: 299.4 micromole per liter
3000 mg BID oral 7 days, Day 4
  uric acid, Max: 262 micromole per liter
  uric acid, Max Change from Baseline: −59 micromole per liter
  uric acid, Mean Change from Baseline: −83.3 micromole per liter
  uric acid, Median: 226.0 micromole per liter
  uric acid, Median Change from Baseline: −83.3 micromole per liter
  uric acid, Min: 161 micromole per liter
  uric acid, Min Change from Baseline: −107 micromole per liter
  uric acid, Mean: 216.1 micromole per liter
3000 mg BID oral 7 days, Day 7
  uric acid, Max: 268 micromole per liter
  uric acid, Max Change from Baseline: −71 micromole per liter
  uric acid, Mean Change from Baseline: −85.3 micromole per liter
  uric acid, Median: 214.1 micromole per liter
  uric acid, Median Change from Baseline: −74.4 micromole per liter
  uric acid, Min: 149 micromole per liter
  uric acid, Min Change from Baseline: −131 micromole per liter
  uric acid, Mean: 214.1 micromole per liter
[6]
  uric acid, Max: 345 micromole per liter
  uric acid, Max Change from Baseline: 18 micromole per liter
  uric acid, Mean Change from Baseline: −29.7 micromole per liter
  uric acid, Median: 270.6 micromole per liter
  uric acid, Median Change from Baseline: −23.8 micromole per liter
  uric acid, Min: 208 micromole per liter
  uric acid, Min Change from Baseline: −83 micromole per liter
  uric acid, Mean: 269.6 micromole per liter
200-3000 mg BID oral 7 days, Day 7
  decreases from baseline in uric acid, dose-response: a dose-response effect was not as apparent
200-3000 mg BID oral 7 days, Days 4 and 7, Day 12
  mean uric acid levels, relation to dose: dose-related decrease in mean uric acid levels was observed at Days 4 and 7, which partially resolved by Day 12
scyllo-inositol treated versus placebo, Day 7, ANCOVA
  mean difference (PLC-TRT) in change from baseline to day 7, point estimate: 0.85
